In US20050032873A1, “3-Amino chroman and 2-amino tetralin derivatives” (Wyeth, priority 2003, published 2005):
Where two headings read alike, the source gives them in different places.

Tests used:
5-HT1A receptor [1] = molecular target: T1, 5-HT1A receptor (Homo sapiens, UniProt P08908); assay: cAMP accumulation assay, 5-HT1A function; assay type: cell-based; conditions: for EC50: cells marked EC50 (agonist); for Emax / 5-HT1A Function cAMP (Emax): in brackets after EC50 or IC50; for Emax: read-out: 5-HT1A Function cAMP (Emax); for IC50: cells marked IC50 (antagonist), read-out: 5-HT1A Function cAMP IC50
T1 sequence (P08908 1-422): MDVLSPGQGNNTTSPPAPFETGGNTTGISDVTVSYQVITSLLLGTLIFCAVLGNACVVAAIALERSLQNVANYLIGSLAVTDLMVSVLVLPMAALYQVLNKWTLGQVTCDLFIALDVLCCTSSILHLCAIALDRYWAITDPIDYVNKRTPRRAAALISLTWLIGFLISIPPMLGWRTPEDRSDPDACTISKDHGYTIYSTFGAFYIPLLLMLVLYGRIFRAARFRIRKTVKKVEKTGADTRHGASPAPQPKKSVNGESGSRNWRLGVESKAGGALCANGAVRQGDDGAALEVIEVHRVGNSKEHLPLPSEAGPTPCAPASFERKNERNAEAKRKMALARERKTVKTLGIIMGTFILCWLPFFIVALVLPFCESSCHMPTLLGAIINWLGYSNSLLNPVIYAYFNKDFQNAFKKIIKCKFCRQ
Description: The agonist or antagonist activity at 5-HT1A receptors was established by using two different assays. […] Agonists produce an increase in binding whereas antagonists produce no increase but rather reverse the effects of the standard agonist 8-OH-DPAT. The test compound's maximum stimulatory effect is represented as the Emax, while its potency is defined by the EC50. The test compound's maximum inhibitory effect is represented as the Imax, while its potency is defined by the IC50. The second assay measured cAMP accumulation upon binding of the ligand to the 5-HT1A receptor. […] The test compound's maximum stimulatory or inhibitory effect is represented as the Emax while its potency is defined by either IC50 for an antagonist or EC50 for an agonist. [^3H]-8-OH-DPAT was used to determine maximum agonist or antagonist response in both functional assays.

5-HT1A receptor [2] = molecular target: T1, 5-HT1A receptor; assay: 5-HT1A receptor affinity: displacement of [3H] 8-OH-DPAT; assay type: binding; parameters: expressed in transfected cells; conditions: displacement of [3H] 8-OH-DPAT; CHO cells stably transfected with human 5-HT1A receptors; read-out: 5-HT1A Receptor Affinity Ki
serotonin transporter = molecular target: T2, serotonin transporter (Rattus norvegicus, UniProt P31652); assay: 5-HT transporter affinity: displacement of 3H-paroxetine from male rat cortical membranes; assay type: binding; conditions: displacement of 3H-paroxetine; male rat cortical membranes; read-out: 5-HT Transporter Affinity Ki
T2 construct: displace ^3H-paroxetine from male rat cortical membranes; from tissue; host or cells: male rat cortical membranes

[3] = molecular target: T3, cloned human 5-HT1A receptors (Homo sapiens, UniProt P08908); assay: 35S-GTPγS binding assay, 5-HT1A function; assay type: biochemical; conditions: for IC50: antagonist potency, reversal of 8-OH-DPAT, read-out: 5-HT1A Function GTPγS IC50; for EC50: agonist potency
T3 construct: expressed in transfected cells
T3 sequence (P08908 1-422): T1 sequence (P08908 1-422)

[4] = maximum inhibitory effect, in brackets after IC50, read-out: 5-HT1A Function GTPγS (Imax)
[5] = maximum stimulatory effect, in brackets after EC50, read-out: 5-HT1A Function GTPγS (Emax)
[6] = maximum inhibitory effect, in brackets after IC50

T2 sequence (P31652 whole entry): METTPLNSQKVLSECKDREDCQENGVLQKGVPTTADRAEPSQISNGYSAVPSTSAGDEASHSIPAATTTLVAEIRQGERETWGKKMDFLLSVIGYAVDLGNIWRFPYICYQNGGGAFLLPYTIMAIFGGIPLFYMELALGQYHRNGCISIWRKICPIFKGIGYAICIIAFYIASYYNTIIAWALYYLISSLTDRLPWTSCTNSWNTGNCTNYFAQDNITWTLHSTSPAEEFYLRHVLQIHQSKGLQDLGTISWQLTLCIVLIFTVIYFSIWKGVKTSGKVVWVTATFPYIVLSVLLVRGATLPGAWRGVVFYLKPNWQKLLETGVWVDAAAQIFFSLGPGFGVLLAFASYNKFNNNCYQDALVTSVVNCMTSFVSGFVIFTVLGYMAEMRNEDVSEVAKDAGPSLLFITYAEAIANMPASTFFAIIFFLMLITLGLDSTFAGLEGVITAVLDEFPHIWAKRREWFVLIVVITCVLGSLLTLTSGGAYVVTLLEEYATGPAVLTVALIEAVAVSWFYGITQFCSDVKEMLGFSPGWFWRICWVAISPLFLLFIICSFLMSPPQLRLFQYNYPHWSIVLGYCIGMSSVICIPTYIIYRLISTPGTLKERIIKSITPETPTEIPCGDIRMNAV

| SMILES | EC50 (5-HT1A receptor [1]) | Emax (5-HT1A receptor [1]) | Ki (5-HT1A receptor [2]) | Ki (serotonin transporter) | IC50 [3] | Emax [3, 4] | EC50 [3] | Emax [3, 5] | IC50 (5-HT1A receptor [1]) | 5-HT1A Function cAMP (Emax) (5-HT1A receptor [1]) | 5-HT1A Function GTPγS (Imax) [3, 6] |
| --- | --- | --- | --- | --- | --- | --- | --- | --- | --- | --- | --- |
| NC(=O)c1ccc(F)c2c1CC(N(CCCCn1ccc3ccc(F)cc31)CC1CC1)CO2 (centres unmarked) [Compound 195, 3-{(Cyclopropylmethyl)[4-(6-fluoro-1H-indol-1-yl)butyl]amino}-8-fluorochromane-5-carboxamide] | 21.9 nM | 58% | 3.25 nM | 12.5 nM | 371 nM | 100% |  |  |  |  |  |
| CCCN(CCCc1c[nH]c2ccc(F)cc12)[C@H]1CCc2cccc(OC)c2C1 [Compound 47a, (−)-N-[3-(5-fluoro-1H-indol-3-yl)propyl]-8-methoxy-N-propyl-1,2,3,4-tetrahydronaphthalen-2-amine] | 7.61 nM | 99% | 1.55 nM | 0.83 nM |  |  | 5.6 nM | 80.5% |  |  |  |
| NC(=O)c1ccc(F)c2c1CC(N(CC1CCc3[nH]c4ccc(F)cc4c3C1)C1CCC1)CO2 (single isomer, unassigned; (-)) [Compound 174d, (−)-3-{cyclobutyl[(6-fluoro-2,3,4,9-tetrahydro-1H-carbazol-3-yl)methyl]amino}-8-fluorochromane-5-carboxamide] |  |  | 73.3 nM | 322 nM | 4750 nM |  |  |  | 304 nM | 0% | 100% |
| NC(=O)c1ccc(F)c2c1CC(N(CCCc1c[nH]c3c(Cl)cccc13)CC1CC1)CO2 (centres unmarked) [Compound 112, 3-[[3-(7-chloro-1H-indol-3-yl)propyl](cyclopropylmethyl)amino]-8-fluorochromane-5-carboxamide] |  | 0% | 0.74 nM | 61 nM | 241 nM | 100% |  |  | 56.8 nM |  |  |
| CCCN(C(C)CCc1c[nH]c2ccc(F)cc12)C1COc2c(F)ccc(C(N)=O)c2C1 (single isomer, unassigned) [Compound 12c, 8-fluoro-3-[[3-(5-fluoro-1H-indol-3-yl)-1-methylpropyl](propyl)amino]-3,4-dihydro-2H-chromene-5-carboxamide] |  |  | 48.8 nM | 121 nM | 3000 nM |  |  |  | 73.7 nM | 0% | 100% |
| CNC(=O)c1ccc(F)c2c1CC(N(CCc1c[nH]c3ccc(F)cc13)CC1CC1)CO2 (centres unmarked) [Compound 86, 3-{(cyclopropylmethyl)[2-(5-fluoro-1H-indol-3-yl)ethyl]amino}-8-fluoro-N-methylchromane-5-carboxamide] |  | 0% | 8.82 nM | 70 nM | 773 nM | 100% |  |  | 229 nM |  |  |
| COc1cccc2c(CCCCN(CC3CC3)C3COc4c(F)ccc(C(N)=O)c4C3)coc12 (centres unmarked) [Compound 170, 3-{(cyclopropylmethyl)[4-(7-methoxy-1-benzofuran-3-yl)butyl]amino}-8-fluorochromane-5-carboxamide] |  | 0% | 0.72 nM | 457 nM | 158 nM | 100% |  |  | 103 nM |  |  |
| NC(=O)c1ccc(F)c2c1CC(N(CC1CCc3[nH]c4ccc(F)cc4c3C1)C1CCC1)CO2 (single isomer, unassigned; (+)) [Compound 174b, (+)-3-{cyclobutyl[(6-fluoro-2,3,4,9-tetrahydro-1H-carbazol-3-yl)methyl]amino}-8-fluorochromane-5-carboxamide] |  | 0% | 0.85 nM | 192 nM | 1440 nM |  |  |  | 64.1 nM |  | 67% |
| CCCN(C(C)CCc1c[nH]c2ccc(C#N)cc12)C1COc2c(F)ccc(C(N)=O)c2C1 (single isomer, unassigned) [Compound 13a, 3-[[3-(5-cyano-1H-indol-3-yl)-1-methylpropyl](propyl)amino]-8-fluoro-3,4-dihydro-2H-chromene-5-carboxamide] |  |  | 24.3 nM | 23.5 nM | 534 nM | 100% |  |  | 76.6 nM | 0% |  |
| NC(=O)c1ccc(F)c2c1CC(N(CC1CCc3[nH]c4ccc(F)cc4c3C1)C1CCC1)CO2 (single isomer, unassigned; (+)) [Compound 174c, (+)-3-{cyclobutyl[(6-fluoro-2,3,4,9-tetrahydro-1H-carbazol-3-yl)methyl]amino}-8-fluorochromane-5-carboxamide] |  |  | 185 nM | 1100 nM |  |  | 978 nM | 55% | 607 nM | 0% |  |
| NC(=O)c1ccc(F)c2c1CC(N(CCCc1c[nH]c3ccc(Cl)cc13)CC1CC1)CO2 (centres unmarked) [Compound 118, 3-[[3-(5-chloro-1H-indol-3-yl)propyl](cyclopropylmethyl)amino]-8-fluorochromane-5-carboxamide] |  | 0% | 1.49 nM | 41.4 nM | 134 nM | 69% |  |  | 168 nM |  |  |
| CC(CCc1c[nH]c2c(F)cc(F)cc12)N(CC1CC1)C1COc2c(F)ccc(C(N)=O)c2C1 (single isomer, unassigned) [Compound 154c, 3-{(cyclopropylmethyl)[3-(5,7-difluoro-1H-indol-3-yl)-1-methylpropyl]amino}-8-fluorochromane-5-carboxamide] |  | 0% | 24.8 nM | 67.5 nM | 1990 nM |  |  |  | 3090 nM |  | 100% |
| O=C(NC1CCC1)c1cccc2c1CC(N(CCCc1c[nH]c3c(F)cc(F)cc13)C1CCC1)CO2 (centres unmarked) [Compound 143, N-cyclobutyl-3-{cyclobutyl[3-(5,7-difluoro-1H-indol-3-yl)propyl]amino}chromane-5-carboxamide] | 523 nM | 91% | 31.9 nM | 4.4 nM |  |  | 1390 nM | 100% |  |  |  |
| CCCN(CCCc1c[nH]c2ccc(F)cc12)C1COc2c(F)ccc(C(=O)NC)c2C1 (centres unmarked) [Compound 90, 8-fluoro-3-[[3-(5-fluoro-1H-indol-3-yl)propyl](propyl)amino]-N-methylchromane-5-carboxamide] |  | 0% | 0.81 nM | 3.37 nM | 617 nM | 33% | 34.5 nM | 47% | 73.8 nM |  |  |
| COc1cccc2c(CCCN(C3CCC3)C3COc4c(F)ccc(C(N)=O)c4C3)c[nH]c12 (centres unmarked) [Compound 102, 3-{cyclobutyl[3-(7-methoxy-1H-indol-3-yl)propyl]amino}-8-fluorochromane-5-carboxamide] |  | 0% | 3.22 nM | 1110 nM | 557 nM | 100% |  |  | 270 nM |  |  |
| CCCN(CCCc1c[nH]c2ccc(F)cc12)[C@@H]1COc2c(F)ccc(OC)c2C1 [Compound 27, (3S)-8-fluoro-N-[3-(5-fluoro-1H-indol-3-yl)propyl]-5-methoxy-N-propylchroman-3-amine] | 16.4 nM | 88.5% | 12.6 nM | 13.5 nM |  |  | 116 nM | 97% |  |  |  |
| O=C(NCC1CC1)c1cccc2c1CC(N(CCCc1c[nH]c3c(F)cc(F)cc13)C1CCC1)CO2 (centres unmarked) [Compound 144, 3-{cyclobutyl[3-(5,7-difluoro-1H-indol-3-yl)propyl]amino}-N-(cyclopropylmethyl)chromane-5-carboxamide] | 4990 nM | 100% | 169 nM | 5.5 nM |  |  | 7600 nM | 73% |  |  |  |
